Assay results published in ChEMBL document CHEMBL5252628, “Novel xanthone antibacterials: Semi-synthesis, biological evaluation, and the action mechanisms” (Bioorg Med Chem, 2023).
≈ marks a conversion by molar mass, not a printed value. Calls of active or inactive are those of the source. The rule behind the calls is not given here.

How the values were obtained:
Staphylococcus aureus [1] = assay: Antibacterial activity against methicillin-resistant Staphylococcus aureus 2 assessed as inhibition of bacterial growth incubated for 18 to 24 hrs by broth microdilution assay; type: functional; details: time 18-24 hrs
Staphylococcus aureus [2] = assay: Antibacterial activity against Staphylococcus aureus ATCC 43300 assessed as inhibition of bacterial growth incubated for 18 to 24 hrs by broth microdilution assay; type: functional; details: time 18-24 hrs
Escherichia coli = assay: Antibacterial activity against Escherichia coli ATCC 25922 assessed as inhibition of bacterial growth incubated for 18 to 24 hrs by broth microdilution assay; type: functional; details: time 18-24 hrs
Salmonella enteritidis = assay: Antibacterial activity against Salmonella enteritidis SM012 assessed as inhibition of bacterial growth incubated for 18 to 24 hrs by broth microdilution assay; type: functional, Salmonella enterica subsp. enterica serovar Enteritidis; details: Salmonella enterica, time 18-24 hrs
Staphylococcus aureus [3] = assay: Antibacterial activity against Staphylococcus aureus SH-27 assessed as inhibition of bacterial growth incubated for 18 to 24 hrs by broth microdilution assay; type: functional; details: time 18-24 hrs
Staphylococcus aureus [4] = assay: Antibacterial activity against Staphylococcus aureus ATCC 29213 assessed as inhibition of bacterial growth incubated for 18 to 24 hrs by broth microdilution assay; type: functional; details: time 18-24 hrs
Staphylococcus aureus [5] = assay: Antibacterial activity against Staphylococcus aureus ATCC 33591 assessed as inhibition of bacterial growth incubated for 18 to 24 hrs by broth microdilution assay; type: functional; details: time 18-24 hrs
[6] = Hemolytic activity in rabbit RBC assessed as hemolysis incubated for 1 hr by microtiter plate method; type: toxicity, cell-based, Oryctolagus cuniculus, Erythrocyte; details: red blood cells
Staphylococcus aureus [7] = assay: Bactericidal activity against Staphylococcus aureus ATCC 29213 assessed as reduction in colony forming unit at 1 to 8 times MIC incubated for 18 to 24 hrs by time kill assay; type: functional, organism-based; details: time 18-24 hrs
Staphylococcus aureus [8] = assay: Bactericidal activity against methicillin-resistant Staphylococcus aureus 2 assessed as reduction in colony forming unit at 1 to 8 times MIC incubated for 18 to 24 hrs by time kill assay; type: functional, organism-based; details: time 18-24 hrs
Staphylococcus aureus [9] = assay: Inhibition of biofilm formation in Staphylococcus aureus ATCC 29213 at 4 to 16 microg/ml incubated for 18 to 24 hrs by crystal violet staining based assay; type: functional, organism-based; details: dose 4-16 µg/ml, time 18-24 hrs
Staphylococcus aureus [10] = assay: Inhibition of biofilm formation in methicillin-resistant Staphylococcus aureus 2 at 4 to 16 microg/ml incubated for 18 to 24 hrs by crystal violet staining based assay; type: functional, organism-based; details: dose 4-16 µg/ml, time 18-24 hrs
Staphylococcus aureus [11] = assay: Antibacterial activity against Staphylococcus aureus ATCC 29213 assessed as cell wall loosening at 5 x MIC incubated for 2 hrs by transmission electron microscopy analysis; type: functional, organism-based
Staphylococcus aureus [12] = assay: Antibacterial activity against Staphylococcus aureus ATCC 29213 assessed as blurred space in cytoplasm and cell wall at 5 x MIC incubated for 2 hrs by transmission electron microscopy analysis; type: functional, organism-based
Staphylococcus aureus [13] = assay: Antibacterial activity against Staphylococcus aureus ATCC 29213 assessed as separation of plasma wall at 5 x MIC incubated for 2 hrs by transmission electron microscopy analysis; type: functional, organism-based
Staphylococcus aureus [14] = assay: Antibacterial activity against Staphylococcus aureus ATCC 29213 assessed as appearance of circular vesicles at 5 x MIC incubated for 2 hrs by transmission electron microscopy analysis; type: functional, organism-based
Staphylococcus aureus [15] = assay: Antibacterial activity against methicillin-resistant Staphylococcus aureus 2 assessed as cell wall loosening at 5 x MIC incubated for 2 hrs by transmission electron microscopy analysis; type: functional, organism-based
Staphylococcus aureus [16] = assay: Antibacterial activity against methicillin-resistant Staphylococcus aureus 2 assessed as blurred space in cytoplasm and cell wall at 5 x MIC incubated for 2 hrs by transmission electron microscopy analysis; type: functional, organism-based
Staphylococcus aureus [17] = assay: Antibacterial activity against methicillin-resistant Staphylococcus aureus 2 assessed as separation of plasma wall at 5 x MIC incubated for 2 hrs by transmission electron microscopy analysis; type: functional, organism-based
Staphylococcus aureus [18] = assay: Antibacterial activity against methicillin-resistant Staphylococcus aureus 2 assessed as appearance of circular vesicles at 5 x MIC incubated for 2 hrs by transmission electron microscopy analysis; type: functional, organism-based
Cell membrane [19] = assay: Induction of cell membrane permeability in Staphylococcus aureus ATCC 29213 at 5 x MIC incubated for 2 hrs by TO-PRO-3 reagent flow cytometry assay; type: subcellular
Cell membrane [20] = assay: Induction of cell membrane permeability in methicillin-resistant Staphylococcus aureus 2 at 5 x MIC incubated for 2 hrs by TO-PRO-3 reagent flow cytometry assay; type: subcellular
A549 = assay: Cytotoxicity against human A549 cells assessed as reduction in cell viability at 25 ug/ml incubated for 72 hrs by CCK-8 assay; type: toxicity, cell-based; details: a549, 72 h, dose 25 µg/ml
Cell membrane [21] = assay: Induction of membrane depolarization in Staphylococcus aureus ATCC 29213 at 5 x MIC incubated for 2 hrs by DiOC23 dye based based flow cytometry; type: subcellular
Cell membrane [22] = assay: Induction of membrane depolarization in methicillin-resistant Staphylococcus aureus 2 at 5 x MIC incubated for 2 hrs by DiOC23 dye based based flow cytometry; type: subcellular
L02 = assay: Cytotoxicity against human L02 cells assessed as reduction in cell viability at 25 ug/ml incubated for 72 hrs by CCK-8 assay; type: toxicity, cell-based; details: l02, 72 h, dose 25 µg/ml
Staphylococcus aureus [23] = assay: Antibacterial activity Staphylococcus aureus ATCC 29213 infected BALB/c mouse assessed as reduction in bacterial burden at 15 mg/kg,iv measured on day 1 and 3 after infection; type: functional, organism-based
Staphylococcus aureus [24] = assay: Induction of drug resistance in Staphylococcus aureus ATCC 29213 assessed as fold increase in MIC measured after 20 passage; type: functional

Row | Structure (SMILES) | MIC (Staphylococcus aureus [1]) [µg/mL] | MIC (Staphylococcus aureus [2]) [µg/mL] | MIC (Escherichia coli) [µg/mL] | MIC (Salmonella enteritidis) [µg/mL] | MIC (Staphylococcus aureus [3]) [µg/mL] | MIC (Staphylococcus aureus [4]) [µg/mL] | MIC (Staphylococcus aureus [5]) [µg/mL] | other results
1 | C=CCOc1cc2oc3cc(OCC=C)c(OC)c(CC=C(C)C)c3c(=O)c2c(OC(C)=O)c1CC=C(C)C | > 256 | > 256 | > 256 | > 256 | > 256 | > 256 | > 256 | 
2 | COc1c(O)cc2oc3cc(O)c(CC=C(C)C)c(O)c3c(=O)c2c1CC=C(C)C [MANGOSTIN] | 2 (≈ 4.87 µM) | 1 (≈ 2.44 µM) | > 256 | > 256 | 2 (≈ 4.87 µM) | 2 (≈ 4.87 µM) | 1 (≈ 2.44 µM) | HC50 at 1 h [6]: 26.2 µg/mL; Activity (Staphylococcus aureus [7]): Active; Activity (Staphylococcus aureus [8]): Active; inhibition (Staphylococcus aureus [9]): Dose-Dependent Effect; inhibition (Staphylococcus aureus [10]): Dose-Dependent Effect; Activity (Staphylococcus aureus [11]): Active; Activity (Staphylococcus aureus [12]): Active; Activity (Staphylococcus aureus [13]): Active; Activity (Staphylococcus aureus [14]): Active; Activity (Staphylococcus aureus [15]): Active; Activity (Staphylococcus aureus [16]): Active; Activity (Staphylococcus aureus [17]): Active; Activity (Staphylococcus aureus [18]): Active; Activity (Cell membrane [19]): 100%; Activity (Cell membrane [20]): 100%; Activity (A549): Non-Toxic; Activity (Cell membrane [21]): Active; Activity (Cell membrane [22]): Active; Activity (L02): Non-Toxic
3 | COc1c(O)cc2oc3cc(O)c(CCC(C)C)c(O)c3c(=O)c2c1CCC(C)C | 64 (≈ 154 µM) | 32 (≈ 77.2 µM) | > 256 | > 256 | 64 (≈ 154 µM) | 32 (≈ 77.2 µM) | 64 (≈ 154 µM) | 
4 | COc1c(O)cc2oc3cc4c(c(O)c3c(=O)c2c1CC=C(C)C)CCC(C)(C)O4 | 64 (≈ 156 µM) | 64 (≈ 156 µM) | > 256 | > 256 | 64 (≈ 156 µM) | 64 (≈ 156 µM) | 32 (≈ 78 µM) | 
5 | COc1c(OCCCCCCO)cc2oc3cc(O)c(CC=C(C)C)c(O)c3c(=O)c2c1CC=C(C)C | > 256 | > 256 | > 256 | > 256 | > 256 | > 256 | > 256 | 
6 | C=CCOc1cc2oc3cc(OCC=C)c(OC)c(CC=C(C)C)c3c(=O)c2c(OC(=O)C(C)C)c1CC=C(C)C | > 256 | > 256 | > 256 | > 256 | > 256 | > 256 | > 256 | 
7 | COc1c(OC(C)=O)cc2oc3cc(OC(C)=O)c(CC=C(C)C)c(OC(C)=O)c3c(=O)c2c1CC=C(C)C | > 256 | > 256 | > 256 | > 256 | 16 (≈ 29.8 µM) | 128 (≈ 239 µM) | > 256 | HC50 at 1 h [6]: > 500 µg/mL; Activity (A549): Non-Toxic; Activity (L02): Non-Toxic
8 | C=CCOc1cc2oc3cc(OCC=C)c(OC)c(CC=C(C)C)c3c(=O)c2c(O)c1CC=C(C)C | > 256 | > 256 | > 256 | > 256 | > 256 | > 256 | > 256 | 
9 | COc1c(OCCCCCCO)cc2oc3cc(OCCCCCCO)c(CC=C(C)C)c(O)c3c(=O)c2c1CC=C(C)C | > 256 | > 256 | > 256 | > 256 | > 256 | > 256 | > 256 | 
10 | COc1c(O)cc2c(c1CC=C(C)C)Cc1c(cc(O)c(CC=C(C)C)c1O)O2 | 16 (≈ 40.4 µM) | 4 (≈ 10.1 µM) | > 256 | > 256 | 8 (≈ 20.2 µM) | 16 (≈ 40.4 µM) | 8 (≈ 20.2 µM) | HC50 at 1 h [6]: > 500 µg/mL; Activity (A549): Non-Toxic; Activity (L02): Non-Toxic
11 | C=CCOc1cc2oc3cc(O)c(CC=C(C)C)c(O)c3c(=O)c2c(CC=C(C)C)c1OC | > 256 | 256 (≈ 568 µM) | > 256 | > 256 | 2 (≈ 4.44 µM) | > 256 | 256 (≈ 568 µM) | HC50 at 1 h [6]: 403 µg/mL; Activity (A549): Non-Toxic; Activity (L02): Non-Toxic
12 | CCN1CCN(c2cc3c(cc2F)c(=O)c(C(=O)O)cn3C2CC2)CC1 [ENROFLOXACIN] | 32 (≈ 89 µM) |  | 0.0156 (≈ 0.0434 µM) |  | 128 (≈ 356 µM) | 0.06 (≈ 0.167 µM) |  | Activity (Staphylococcus aureus [23]): Active
13 | COc1c(OC(=O)C(C)C)cc2oc3cc(O)c(CC=C(C)C)c(O)c3c(=O)c2c1CC=C(C)C | > 256 | > 256 | > 256 | > 256 | > 256 | > 256 | > 256 | 
14 | COc1c(OC(=O)C(C)C)cc2oc3cc(OC(=O)C(C)C)c(CC=C(C)C)c(OC(=O)C(C)C)c3c(=O)c2c1CC=C(C)C | > 256 | > 256 | > 256 | > 256 | > 256 | > 256 | > 256 | 
15 | COc1cc2oc3cc(OC)c(OC)c(CC=C(C)C)c3c(=O)c2c(OC)c1CC=C(C)C | > 256 | > 256 | > 256 | > 256 | > 256 | > 256 | > 256 | 
16 | Cc1onc(-c2ccccc2)c1C(=O)N[C@@H]1C(=O)N2[C@@H]1SC(C)(C)[C@@H]2C(=O)O [OXACILLIN] |  |  |  |  |  |  |  | fold change (FC) (Staphylococcus aureus [24]): 64
17 | COc1c(O)cc2oc3cc(OC(=O)C(C)C)c(CC=C(C)C)c(O)c3c(=O)c2c1CC=C(C)C | > 256 | > 256 | > 256 | > 256 | > 256 | > 256 | > 256 | 
18 | COc1c(O)cc2oc3cc(O)c(CC=C(C)C)c(OC(=O)C(C)C)c3c(=O)c2c1CC=C(C)C | 2 (≈ 4.16 µM) | 1 (≈ 2.08 µM) | > 256 | > 256 | 1 (≈ 2.08 µM) | 2 (≈ 4.16 µM) | 1 (≈ 2.08 µM) | HC50 at 1 h [6]: 263 µg/mL; Activity (A549): Non-Toxic; Activity (L02): Non-Toxic
19 | COc1c(OCc2ccccc2)cc2oc3cc(OCc4ccccc4)c(CC=C(C)C)c(OCc4ccccc4)c3c(=O)c2c1CC=C(C)C | > 256 | > 256 | > 256 | > 256 | > 256 | > 256 | > 256 | 
20 | COc1c(OC(=O)C(C)C)cc2oc3cc(OC(=O)C(C)C)c(CC=C(C)C)c(O)c3c(=O)c2c1CC=C(C)C | > 256 | > 256 | > 256 | > 256 | > 256 | > 256 | > 256 | 
21 | COc1c(OC(C)=O)cc2oc3cc(OC(C)=O)c(CC=C(C)C)c(O)c3c(=O)c2c1CC=C(C)C | > 256 | > 256 | > 256 | > 256 | > 256 | > 256 | > 256 | 
22 | COc1c(O)cc2oc3cc(OC(C)=O)c(CC=C(C)C)c(O)c3c(=O)c2c1CC=C(C)C | > 256 | > 256 | > 256 | > 256 | > 256 | > 256 | > 256 | 
